Experimental data published in US12570608B2, “Compound derived from quinoline, use of a compound, composition and method for the treatment or prophylaxis of a condition caused by a blood parasite” (FUNDÃÇAO OSWALDO CRUZ, priority 2019, dated 2026).
Several values for one entry are separate records, joined by “and”; a condition that tells them apart may be missing. Identical values can stand only once. Like-named read-outs stand apart in the source and are kept apart here.

Tests used:
P. falciparum 3D7 = experiment: Antiplasmodial SYBR Green assay, CQ-sensitive strain; format: cell-based, Plasmodium falciparum; settings: for IC50: Plasmodium falciparum; for Selectivity index 3D7: ratio between MDL50 and IC50, 3D7
Experimental: Each test was performed in triplicate in at least two different experiments.
Briefly, plates were centrifuged at 700 g for 5 min in room temperature to remove medium, washed with PBS, and incubated for 30 min with lysis buffer solution and SYBR Green I DNA dye (1:20000). The fluorescence of the uninfected erythrocytes was considered as background.
(§1) The half maximum inhibitory concentration of the drug (IC50) was estimated by curve fitting using software and compared with the parasite growth in the compound-free medium.

P. falciparum K1 [1] = experiment: Antiplasmodial SYBR Green assay, multiresistant strain; format: cell-based, Plasmodium falciparum; settings: for Antiplasmodial activity: K1 resistant strain, highest dose 10 μM; for IC50: Plasmodium falciparum; for Selectivity index K1: ratio between MDL50 and IC50, K1
Experimental: Freshly synchronized sorbitol ring stages (Lambros and Vanderberg, 1979) were immediately incubated with the test compounds at various concentrations (10-0.152 μM or 1.0-0.0152 μM) previously solubilized in 0.05% dimethyl sulfoxide (DMSO) (v/v). Each test was performed in triplicate in at least two different experiments.
The antiplasmodial activity of the compounds was measured by DNA labeling assay using the fluorescent probe SYBR Green (Smilkstein et al., 2004).
Briefly, plates were centrifuged at 700 g for 5 min in room temperature to remove medium, washed with PBS, and incubated for 30 min with lysis buffer solution and SYBR Green I DNA dye (1:20000). The fluorescence of the uninfected erythrocytes was considered as background. Fluorescence was measured in a fluorimeter at 485/535 nm.
as §1

BGM-VN = experiment: Cytotoxicity, MTT assay; format: cell-based; settings: 24 h incubation
Experimental: The compounds (20 μL) at various concentrations (400-1.0 μM) were placed in the 96-well plates, incubated with the cultured cells for 24 h under a 5%CO2 atmosphere at 37° C., and then a 3-(4,5-dimethylthiazol-2-yl)-2,5-diphenyltetrazolium bromide (MTT) solution ([…]; 20 μL/well for 3 h) was used to assess mitochondrial viability.
The supernatants were carefully removed and 100 μL of DMSO was added to each well and mixed to solubilize the formazan crystals. The optical density was determined at 570 nm. Cell viability was expressed as the percentage of the control absorbance in the untreated cells after subtracting the appropriate background. Each test was performed in triplicate in at least two different experiments.

β-hematin formation = experiment: Inhibition of β-hematin formation (lipid-catalysed heme crystallization); format: biochemical
Experimental: Briefly, drug stock solutions were prepared in DMSO, used at a final concentration of up to 30 mM A heme stock (10 mM) was made in DMSO and diluted to […] with 100 mM sodium acetate (pH 4.8).
The plates were incubated at 37° C. for 2 h to allow crystallization, followed by the addition of 100 μL of 200 mM sodium bicarbonate (pH 9.1) to solubilize any remaining monomeric heme. After incubation for 30 min at room temperature, the amount of solubilized monomeric heme was determined by measuring the absorbance at 405 nm.
Finally, 20 μL of 1 M sodium hydroxide was added to the plates to dissolve the crystals formed. The absorbance was read at 405 nm to determine the total amount of heme present in each well.
The inhibition of heme crystallization was determined as a function of the amount of monomeric heme that was not crystallized divided by the total amount of heme present in the test mixture. The results are expressed as IC50 values based on the percentage inhibition of β-hematin formation by compounds GIQ, CEQ, PCQ and DAQ. Each test was performed in triplicate in at least two different experiments.

P. berghei NK65 = experiment: P. berghei suppression test in mice; format: in vivo; settings: for Parasitemia % reduction day 5 / Parasitemia % reduction day 7 / Parasitemia % reduction day 9 / Parasitemia % reduction day 11 / Parasitemia % reduction day 13 / Parasitemia % reduction day 15: three days, relative to untreated mice; for Survival of mice compared to the untreated control: Mann-Whitney test
Experimental: A P. berghei NK65 strain was obtained as a donation from New York University and maintained through weekly blood draws.
On days 5 to 15 after parasite inoculation, blood was taken from the tail of each mouse and used to prepare thin smears that were fixed with methanol, stained with Giemsa and examined microscopically (1000×) to determine parasitemia.
Parasite growth inhibition was determined relative to parasitemia in the untreated mice, considered to be 100% parasite growth. […] The experiments were performed twice.

P. falciparum K1 [2] = experiment: Time course of inhibitory activity, microscopy of synchronized parasites; format: cell-based, Plasmodium falciparum; settings: 10 times IC50 of 3D7 applied to K1; 0, 12, 24, 36 h
Experimental: The time course of inhibitory activity of the CQ analogues was also evaluated. The compounds were incubated at a concentration 10 times higher than the IC50 values obtained for the P. falciparum 3D7 sensitive strain with synchronized parasites. Morphological changes were then observed by microscopy after 0, 12, 24 and 36 hours after synchronization (FIG. 3). Parasites sensitive (3D7 strain) and resistant (K1 strain) to CQ were tested in parallel, and the antimalarial CQ was used as a control.

Indochina I = settings: resistant strain Indochina I; verapamil; cited from earlier work
CQ-resistant strains = settings: prior art; cited from earlier work
[3] = CQ-sensitive strain 3D7, SYBR Green, ± SD, read-out: IC50 (nM ± SD) P.falciparum 3D7
[4] = multiresistant strain K1, SYBR Green, ± SD, read-out: IC50 (nM ± SD) P.falciparum K1
[5] = 3D7, read-out: IC50 (nM ± SD) P.falciparum 3D7
[6] = K1, read-out: IC50 (nM ± SD) P.falciparum K1
[7] = CQ 20 mg/kg, daily for three days
[8] = 50 mg/kg orally, daily for three days

SMILES	Selectivity index 3D7 (P. falciparum 3D7)	Selectivity index K1 (P. falciparum K1 [1])	MLD50 (μM) BGM-VN (BGM-VN) [µM]	IC50 (P. falciparum 3D7; [5]) [nM]	IC50 (P. falciparum K1 [1]; [6]) [nM]	Survival (P. berghei NK65; [8])	Survival of mice compared to the untreated control (P. berghei NK65; 50 mg/kg orally)	Parasitemia day 5 (P. berghei NK65; [8])	Parasitemia day 7 (P. berghei NK65; [8])	Parasitemia % reduction day 7 (P. berghei NK65; 50 mg/kg orally) [%]	Parasitemia day 9 (P. berghei NK65; [8])	Parasitemia % reduction day 9 (P. berghei NK65; 50 mg/kg orally) [%]	Parasitemia day 11 (P. berghei NK65; [8])	Parasitemia % reduction day 11 (P. berghei NK65; 50 mg/kg orally) [%]	Parasitemia day 13 (P. berghei NK65; [8])	Parasitemia % reduction day 13 (P. berghei NK65; 50 mg/kg orally) [%]	Parasitemia day 15 (P. berghei NK65; [8])	Parasitemia % reduction day 15 (P. berghei NK65; 50 mg/kg orally) [%]	also measured
O=C(O)CNc1ccnc2cc(Cl)ccc12 [GIQ]	Inactive	Inactive	>1000																Antiplasmodial activity (P. falciparum 3D7; 3D7, highest dose 10 μM): inactive; IC50 (P. falciparum 3D7; [3]): > 10000 nM; Antiplasmodial activity (P. falciparum K1 [1]): inactive; IC50 (P. falciparum K1 [1]; [4]): > 10000 nM; β-hematin inhibition, comparison (β-hematin formation): least potent
CCN(CC)CCCC(C)Nc1ccnc2cc(Cl)ccc12 (stereo not shown) [CQ, chloroquine, reference compound]				36 ± 12	177 ± 20														Parasitemia until the last day of evaluation (P. berghei NK65; CQ 20 mg/kg): did not show parasitemia; Survival (P. berghei NK65; CQ 20 mg/kg): survived until the last day of the experiment; Survival (P. berghei NK65; [7]): >30; Parasitemia day 5 (P. berghei NK65; [7]): 0.00; Parasitemia % reduction day 5 (P. berghei NK65; CQ 20 mg/kg): 100%; Parasitemia day 7 (P. berghei NK65; [7]): 0.00; Parasitemia % reduction day 7 (P. berghei NK65; CQ 20 mg/kg): 100%; Parasitemia day 9 (P. berghei NK65; [7]): 0.00; Parasitemia % reduction day 9 (P. berghei NK65; CQ 20 mg/kg): 100%; Parasitemia day 11 (P. berghei NK65; [7]): 0.00; Parasitemia % reduction day 11 (P. berghei NK65; CQ 20 mg/kg): 100%; Parasitemia day 13 (P. berghei NK65; [7]): 0.00; Parasitemia % reduction day 13 (P. berghei NK65; CQ 20 mg/kg): 100%; Parasitemia day 15 (P. berghei NK65; [7]): 0.00; Parasitemia % reduction day 15 (P. berghei NK65; CQ 20 mg/kg): 100%; Time course / stage of action, morphology (P. falciparum K1 [2]): did not block complete parasite development; Improvement of IC50 after PfCRT inhibition (Indochina I): 10 ×
CCN(CC)CCCNc1ccnc2cc(Cl)ccc12 [AQ-13]																			Activity against CQ-resistant strains (literature, words) (CQ-resistant strains): shows antimalarial activity
CCN(CC)Cc1cc(Nc2ccnc3cc(Cl)ccc23)ccc1O [AQ]																			Activity against CQ-resistant strains (literature, words) (CQ-resistant strains): cross-resistance with CQ
CCN(CC)CC#CCNc1ccnc2cc(Cl)ccc12 [DAQ]	32195	29620	1481 ± 39	46 ± 4	50 ± 3	28 ± 1	significantly higher	0.00	0.00	100	0.00	100	0.00	100	0.77	92	3.67	82	Selectivity index (SI) quoted in text (P. falciparum 3D7; strain not stated): 55.750; Antiplasmodial activity (P. falciparum K1 [1]): active; Parasitemia % reduction day 5 (P. berghei NK65; 50 mg/kg orally): 100%; β-hematin inhibition, comparison (β-hematin formation): lower than that of CQ
NCCNc1ccnc2cc(Cl)ccc12 [CEQ]	655		179 ± 40			26 ± 6	significantly higher	0.00	0.00	100	0.00	100	0.00	100	0.57	94	4	80	IC50 (P. falciparum 3D7; [3]): 273 ± 12 nM; IC50 (P. falciparum K1 [1]; [4]): 218 ± 44 nM; Parasitemia % reduction day 5 (P. berghei NK65; 50 mg/kg orally): 100%
C#CCNc1ccnc2cc(Cl)ccc12 [PCQ]	1079	1005	407 ± 185	377 ± 14	405 ± 32	17 ± 8	not increased	1.04	4.83	10	5.75	8	7.5	32	7.0	32	34.5	0	Parasitemia % reduction day 5 (P. berghei NK65; 50 mg/kg orally, 50 mg/kg): 70% and 73%
